How the values were obtained:
[1] = Solid stability test under high temperature and high humidity (40° C./75% humidity), HPLC; type: physicochemical
Description: Samples (each about 100 mg) of the amorphous form of the compound of formula (I) were weighed in duplicates, and placed on the bottom of a glass sample bottle to spread out into a thin layer. The mouth of the glass sample bottle was sealed with aluminum foil which was pierced to form some holes thereon to ensure that the samples could sufficiently contact with the ambient air. The samples were placed in a constant temperature and humidity chamber at 40° C./75% humidity. The samples stored under the above conditions were sampled and tested on Days 10, 30, 60, and 90. The test results were compared with the initial test results of Day 0.

[2] = Solid physical stability test at high humidity (25° C./92.5% RH), appearance and XRPD; type: physicochemical
Description: Samples (each about 100 mg) of the amorphous form of the compound of formula (I) were weighed in duplicates, and placed on the bottom of a glass sample bottle to spread out into a thin layer. The mouth of the glass sample bottle was sealed with aluminum foil which was pierced to form some holes thereon to ensure that the samples could sufficiently contact with the ambient air. The prepared samples were placed under the relative conditions of 25° C./92.5%, and detected for their physical stability on Day 10. Meanwhile, a sample (about 100 mg) of the amorphous form of the compound of formula (I) was separately weighed, placed on the bottom of the glass sample bottle which was sealed with a screw cap, and stored at −20° C. as control. On Day 10, all the samples were taken out and returned to room temperature. The samples were visually observed for their appearance changes, and detected by XRPD for their forms. By comparing the accelerated sample with the control sample, the solid physical stability of the compound of formula (I) was determined.

[3] = Stability tests of the amorphous form in various solvents, XRPD; type: physicochemical; conditions: for Appearance: 40° C. 2 days
Description: A plurality of samples of the amorphous form of the compound of formula (I) (each about 20 mg) were respectively added to 0.3-0.4 mL of a single or mixed solvent as listed in the table below, and stirred at 40° C. After being stirred for 2 days, if the sample was still in a state of a solution or close to a solution, it was filtered, followed by natural evaporation of solvent; and if the sample was still a suspension, the sample was centrifuged for collecting the precipitates, and the supernate was placed in a fuming cupboard until the solvent was dried off. Then, the precipitates and the solids obtained after solvent evaporation were placed in a vacuum drying oven at 40° C. overnight. The solids in all the samples were collected and detected by XRPD for their states.

[4] = tested on: cytokines of PPAR-associated pathways; experiment: Effect on cytokines of PPAR-associated pathways; conditions: no data shown
[5] = 40° C./75% humidity, open, Day 10, HPLC
[6] = 40° C./75% humidity, open, Day 30, HPLC
[7] = 40° C./75% humidity, open, Day 60, HPLC
[8] = 40° C./75% humidity, open, Day 90, HPLC

SMILES: CSc1ccc(C(=O)[C@@H]2CN(C(=O)Oc3ccccc3)C[C@H]2Cc2cc(C)c(OC(C)(C)C(=O)O)c(C)c2)cc1
- Appearance ([1]; 40° C./75% humidity, open, Day 10): Off-white powder
- Purity (%) [1, 5]: 97.49%
- Total Impurity (%) [1, 5]: 2.51%
- Appearance ([1]; 40° C./75% humidity, open, Day 30): Off-white powder
- Purity (%) [1, 6]: 97.31%
- Total Impurity (%) [1, 6]: 2.69%
- Appearance ([1]; 40° C./75% humidity, open, Day 60): Off-white powder
- Purity (%) [1, 7]: 97.59%
- Total Impurity (%) [1, 7]: 2.41%
- Appearance ([1]; 40° C./75% humidity, open, Day 90): Off-white powder
- Purity (%) [1, 8]: 97.28%
- Total Impurity (%) [1, 8]: 2.72%
- stability at high temperature and humidity ([1]; 40° C./75% humidity, up to Day 90): does not exhibit a significant change in content and impurities
- Appearance ([1]; Day 0 (initial)): Off-white powder
- Purity (%) ([1]; Day 0 (initial), HPLC): 97.37%
- Total Impurity (%) ([1]; Day 0 (initial), HPLC): 2.63%
- stability at high humidity ([2]; 25° C./92.5% RH, Day 10): does not exhibit form and appearance changes
- Appearance ([2]; 25° C./92.5% Relative Humidity (Open), Day 10): Off-white powder
- Form ([2]; 25° C./92.5% Relative Humidity (Open), Day 10, XRPD): Amorphous
- Appearance ([3]; 1,4-dioxane, about 20 mg in 0.3-0.4 mL, cell wraps: ...Solid precipitated after evaporation of solvent): Suspension (2 days)/Solid
- Appearance ([3]; Acetone, about 20 mg in 0.3-0.4 mL, cell wraps: ...Solid precipitated after evaporation of solvent): Suspension (2 days)/Solid
- Appearance ([3]; Acetone:water = 3:1, about 20 mg in 0.3-0.4 mL, cell wraps: ...Solid precipitated after evaporation of solvent): Suspension (2 days)/Solid
- Appearance ([3]; Acetonitrile, about 20 mg in 0.3-0.4 mL, cell wraps: ...Solid precipitated after evaporation of solvent): Suspension (2 days)/Solid
- Appearance ([3]; Acetonitrile:water = 3:1, about 20 mg in 0.3-0.4 mL, cell wraps: ...Solid precipitated after evaporation of solvent): Suspension (2 days)/Solid
- Appearance ([3]; Ethanol, about 20 mg in 0.3-0.4 mL, cell wraps: ...Solid precipitated after evaporation of solvent): Suspension (2 days)/Solid
- Appearance ([3]; Ethanol:water = 3:1, about 20 mg in 0.3-0.4 mL, cell wraps: ...Solid precipitated after evaporation of solvent): Suspension (2 days)/Solid
- Appearance ([3]; Ethyl acetate, about 20 mg in 0.3-0.4 mL, cell wraps: ...Solid precipitated after evaporation of solvent): Suspension (2 days)/Solid
- Appearance ([3]; Methanol, about 20 mg in 0.3-0.4 mL, cell wraps: ...after evaporation of solvent): Solid precipitated after
- Results (form by XRPD) ([3]; Methanol, stirred at 40° C. 2 days): Amorphous
- Appearance ([3]; Methanol:water = 3:1, about 20 mg in 0.3-0.4 mL, cell wraps: ...after evaporation of solvent): Solid precipitated after
- Results (form by XRPD) ([3]; Methanol:water = 3:1, stirred at 40° C. 2 days): Amorphous
- Appearance ([3]; Tetrafuran, about 20 mg in 0.3-0.4 mL, cell wraps: ...Solid precipitated after evaporation of solvent): Suspension (2 days)/Solid
- stability of form in various solvents ([3]; summary of Table 4): does not exhibit any change of form
- effect on cytokines of PPAR-associated pathways [4]: obvious inhibitory effect

From patent US11396493B2, “Amorphous pyrrolidine derivative as PPAR agonist and preparation method thereof” (GUANGDONG RAYNOVENT BIOTECH CO., LTD., priority 2017, dated 2022)
